Measured values published in paper PMC11514443 (Structure (London, England : 1993), 2019).
Square brackets hold non-standard residues; d marks the D form. Ends that are not written are not given here. Peptide text beside a SMILES is read from it. Lys(Me3) = C[N+](C)(C)CCCC[C@H](N)C(=O)O

How the values were obtained:
[1] = target: CW domain of human MORC3 (aa 401-455) (human) (UniProt Q14149); assay: other fluorescence titration
[2] = target: MORC3 ATPase domain ATPase (Homo sapiens) (UniProt Q14149); conditions: cited from earlier work
MORC3 ATPase domain ATPase (Homo sapiens), sequence (Q14149 1-400): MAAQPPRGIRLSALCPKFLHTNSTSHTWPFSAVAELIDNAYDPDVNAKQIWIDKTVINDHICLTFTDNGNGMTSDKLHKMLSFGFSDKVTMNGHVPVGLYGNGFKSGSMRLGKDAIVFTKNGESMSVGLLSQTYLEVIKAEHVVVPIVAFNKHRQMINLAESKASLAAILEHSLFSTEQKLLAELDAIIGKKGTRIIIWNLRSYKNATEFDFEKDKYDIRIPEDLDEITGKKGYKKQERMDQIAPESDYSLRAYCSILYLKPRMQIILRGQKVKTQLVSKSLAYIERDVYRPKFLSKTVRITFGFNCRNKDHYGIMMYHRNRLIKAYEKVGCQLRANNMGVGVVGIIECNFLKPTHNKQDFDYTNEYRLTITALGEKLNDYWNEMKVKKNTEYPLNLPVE

[3] = test system: CW domain with W410 mutated to alanine; assay: binding to MORC3-CW W410A mutant
[4] = test system: CW domain with W419 mutated to alanine; assay: binding to MORC3-CW W419A mutant
MORC3-CW [5] = target: T1, MORC3-CW (Homo sapiens, UniProt Q14149); type: binding
T1 sequence (Q14149 401-455): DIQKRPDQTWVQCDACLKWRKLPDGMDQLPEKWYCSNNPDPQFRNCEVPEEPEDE

MORC3-CW [6] = target: T1, MORC3-CW; type: binding; conditions: pH 6.8
MORC3-CW E431A mutant [7] = target: MORC3-CW E431A mutant (Homo sapiens, UniProt Q14149, E431A); conditions: NMR and fluorescence
MORC3-CW E431A mutant [8] = target: T2, MORC3-CW E431A mutant (human, UniProt Q14149 401-455, E431A); assay: other fluorescence titration
T2 sequence (looked up): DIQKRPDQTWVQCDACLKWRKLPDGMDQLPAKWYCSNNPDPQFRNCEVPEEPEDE

MORC3 CW, sequence (Q14149 404-454): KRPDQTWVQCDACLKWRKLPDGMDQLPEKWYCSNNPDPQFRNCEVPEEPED

## NS1 peptide trimethylated at K229 (residues 222-230 of NS1)
[1]
  Kd: 14 µM

## unmodified NS1 peptide (residues 222-230 of NS1)
[1]
  Kd: 157 µM

## MORC3 CW (from UniProt Q14149)
[2]
  Kd: 9 µM

## CSCC[C@H](N)C(=O)N[C@@H](C)C(=O)N[C@@H](CCCNC(=N)N)C(=O)N[C@H](C(=O)N[C@@H](C)C(=O)N[C@@H](CCCNC(=N)N)C(=O)N[C@@H](CO)C(=O)N[C@@H](CCCC[N+](C)(C)C)C(=O)N[C@H](C(=O)O)C(C)C)[C@@H](C)O [NS1K229me3] (H-MARTARS[Lys(Me3)]V-OH; N-terminus and C-terminus assumed)
[3]
  binding to W410A mutant: abrogated binding
[4]
  binding to W419A mutant: abrogated binding
MORC3-CW [5]
  fold increase in binding affinity vs unmodified NS1 peptide: ~ 11 fold
MORC3-CW [6]
  chemical shift perturbations (CSPs) in MORC3-CW: large chemical shift perturbations (CSPs)
MORC3-CW E431A mutant [7]
  binding to E431A mutant: capable of binding

## ARTK(Me3)QTARKSTG (peptide, UniProt P68431 2-13, looked up) [histone H3 peptide trimethylated at lysine 4 (residues 1-12)]
MORC3-CW E431A mutant [8]
  Kd: 0.6 µM
